Values quoted from earlier work in article PMC4245168 (ACS Chemical Biology, 2014).

Test system: parent TPR2A protein
Details: MEAVD versus MEEVD, ref [8]; cited from earlier work

In the case of MEAVD, the “ΔΔG associated with the difference between MEAVD and MEEVD binding” value is given as ~0.6 kcal/mol.
